These results are taken from article PMC7612645 (2021).

Each structure is given as a SMILES string.

For this assay, the system named is US (RNA, single strand) UUUUUACCUAUCUCUUUUUCUCU
Briefly: SPR. The note with it: 250 mM NaCl; 20 mM HEPES pH 7.5, 2% DMSO, 0.1% Tween20, 37 °C; trace shown at 40 nM compound.

On to `Cc1nc2nc(CN)nn2c(C)c1CCC(=O)Nc1ccc(F)c(Cl)c1`, for which the binding result is listed as “no”.
